Assay results from ChEMBL document CHEMBL3046223, “Compounds against inflammation and oxidative insult as potential agents for neurodegenerative disorders” (Med Chem Res, 2012).

Columns and labels:
[1] = target: T1, Prostaglandin G/H synthase 1 (Ovis aries) (UniProt P05979); assay: Inhibition of Ovis aries (sheep) COX1 assessed as formation of PGF2a at 200 uM by enzyme immunoassay
T1 sequence (whole entry): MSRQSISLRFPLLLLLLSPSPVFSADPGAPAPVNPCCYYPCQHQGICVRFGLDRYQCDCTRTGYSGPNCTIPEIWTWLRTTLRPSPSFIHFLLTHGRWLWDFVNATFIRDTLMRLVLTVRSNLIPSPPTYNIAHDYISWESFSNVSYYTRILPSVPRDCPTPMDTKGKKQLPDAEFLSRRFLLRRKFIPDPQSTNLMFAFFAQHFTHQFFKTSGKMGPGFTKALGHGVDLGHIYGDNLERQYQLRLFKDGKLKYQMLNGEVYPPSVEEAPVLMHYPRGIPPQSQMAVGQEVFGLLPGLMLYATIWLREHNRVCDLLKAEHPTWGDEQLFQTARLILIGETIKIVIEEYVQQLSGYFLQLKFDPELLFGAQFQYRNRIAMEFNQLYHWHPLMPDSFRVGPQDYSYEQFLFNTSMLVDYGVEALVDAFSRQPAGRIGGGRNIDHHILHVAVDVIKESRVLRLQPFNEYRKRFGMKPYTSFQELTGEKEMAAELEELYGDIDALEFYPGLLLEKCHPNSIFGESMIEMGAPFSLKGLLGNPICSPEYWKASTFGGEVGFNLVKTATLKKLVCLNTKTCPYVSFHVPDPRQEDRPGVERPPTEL

Rattus norvegicus [2] = assay: Anti-inflammatory activity in Rattus norvegicus Fischer-344 (rat) assessed as inhibition of carrageenan-induced paw oedema at 0.30 mmol/kg, ip administered 5 min before […] measured after 3 hr relative to control; assay type: functional; details: Fischer-344, ip
Mus musculus [3] = assay: Anti-inflammatory activity in Balb-C Mus musculus (mouse) assessed as inhibition of FCA-induced paw oedema at 0.15 mmol/kg, ip administered 5 min before FCA challenge measured after 3 hr relative to control; assay type: functional
Rattus norvegicus [4] = assay: Gastrointestinal toxicity in Rattus norvegicus (rat) assessed as incidence of melena at 84 umol/kg, sc qd for 4 days; assay type: organism-based; details: in vivo, 96 h
Rattus norvegicus [5] = assay: Toxicity in rat assessed as body weight change per 100 gram body weight at 84 umol/kg, sc qd for 4 days; assay type: organism-based; details: in vivo, 96 h
[6] = Toxicity in Rattus norvegicus (rat) assessed as mortality at 84 umol/kg, sc qd for 4 days; assay type: organism-based; details: in vivo
Rattus norvegicus [7] = assay: Gastrointestinal toxicity in Rattus norvegicus (rat) assessed as perforating ulcers at 84 umol/kg, sc qd for 4 days; assay type: organism-based; details: in vivo, 96 h
[8] = target: T2, Seed linoleate 13S-lipoxygenase-1 (Glycine max, UniProt P08170); assay: Inhibition of Glycine max (soybean) lipoxygenase assessed as formation of 13-hydroperoxylinoleic acid using sodium linoleate as substrate after 7 min
T2 sequence (P08170 whole entry): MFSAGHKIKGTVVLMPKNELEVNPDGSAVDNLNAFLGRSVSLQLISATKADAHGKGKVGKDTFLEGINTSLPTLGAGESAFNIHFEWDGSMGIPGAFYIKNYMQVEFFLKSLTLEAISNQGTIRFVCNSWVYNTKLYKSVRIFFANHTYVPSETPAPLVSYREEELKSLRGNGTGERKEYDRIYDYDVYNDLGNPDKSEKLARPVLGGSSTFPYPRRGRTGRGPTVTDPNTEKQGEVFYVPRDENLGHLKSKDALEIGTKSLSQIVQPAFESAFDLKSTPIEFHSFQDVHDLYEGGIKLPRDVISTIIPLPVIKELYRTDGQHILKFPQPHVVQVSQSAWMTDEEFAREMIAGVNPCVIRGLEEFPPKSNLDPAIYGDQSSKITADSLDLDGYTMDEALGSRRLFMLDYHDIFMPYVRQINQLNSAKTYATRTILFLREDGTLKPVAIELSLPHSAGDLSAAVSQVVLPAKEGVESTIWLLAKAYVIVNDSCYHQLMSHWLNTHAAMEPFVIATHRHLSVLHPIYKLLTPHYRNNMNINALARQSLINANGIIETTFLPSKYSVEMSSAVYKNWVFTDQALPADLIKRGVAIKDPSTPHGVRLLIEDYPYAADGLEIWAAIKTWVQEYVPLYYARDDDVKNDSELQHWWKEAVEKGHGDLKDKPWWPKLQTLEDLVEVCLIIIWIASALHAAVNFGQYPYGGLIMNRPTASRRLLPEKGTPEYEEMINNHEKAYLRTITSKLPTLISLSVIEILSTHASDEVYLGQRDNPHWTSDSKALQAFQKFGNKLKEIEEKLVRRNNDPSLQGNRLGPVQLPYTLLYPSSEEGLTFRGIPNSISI

Mus musculus [9] = assay: Anti-inflammatory activity in Balb-C Mus musculus (mouse) assessed as inhibition of FCA-induced paw oedema at 0.30 mmol/kg, ip administered 5 min before FCA challenge measured after 3 hr relative to control; assay type: functional
[10] = Drug uptake in Rattus norvegicus (rat) brain at 0.6 mmol/kg, ip after 30 min by RP-HPLC analysis; assay type: ADME, organism-based; details: read-out: Drug uptake
[11] = Drug uptake in Rattus norvegicus (rat) brain at 0.6 mmol/kg, ip after 120 min by RP-HPLC analysis; assay type: ADME, organism-based; details: read-out: Drug uptake
[12] = Drug uptake in Rattus norvegicus (rat) brain at 0.6 mmol/kg, ip after 60 min by RP-HPLC analysis; assay type: ADME, organism-based; details: read-out: Drug uptake
Liver microsome [13] = assay: Antioxidant activity in Rattus norvegicus (rat) liver microsomal fraction assessed as inhibition of lipid peroxidation after 45 min by spectrophotometric analysis; assay type: functional, microsomes; details: 0.75 h
Liver microsome [14] = assay: Antioxidant activity in Rattus norvegicus (rat) liver microsomal fraction assessed as inhibition of lipid peroxidation at 1 mM after 45 min by spectrophotometric analysis; assay type: functional, microsomes
Rattus norvegicus [15] = assay: Gastrointestinal toxicity in Rattus norvegicus (rat) assessed as perforating ulcers at 200 umol/kg, sc qd for 4 days; assay type: organism-based; details: in vivo, 96 h
Rattus norvegicus [16] = assay: Gastrointestinal toxicity in Rattus norvegicus (rat) assessed as incidence of melena at 200 umol/kg, sc qd for 4 days; assay type: organism-based; details: in vivo, 96 h
[17] = Toxicity in Rattus norvegicus (rat) assessed as mortality at 200 umol/kg, sc qd for 4 days; assay type: organism-based; details: in vivo
Rattus norvegicus [18] = assay: Toxicity in Rattus norvegicus (rat) assessed as body weight change per 100 gram body weight at 200 umol/kg, sc qd for 4 days; assay type: organism-based; details: in vivo, 96 h
Rattus norvegicus [19] = assay: Anti-inflammatory activity in Rattus norvegicus (rat) ischemia-reperfusion model assessed as reduction of malondialdehyde formation in brain at 0.4 mmol/kg, ip qd for 4 days and dose repeated 2 hr before initiation of ischemia measured 90 min after reperfusion; assay type: functional
[20] = Ratio of drug level in brain to blood in Rattus norvegicus (rat) at 0.6 mmol/kg, ip after 2 hr by RP-HPLC analysis; assay type: ADME, organism-based
[21] = Ratio of drug level in brain to blood in Rattus norvegicus (rat) at 0.6 mmol/kg, ip after 3 hr by RP-HPLC analysis; assay type: ADME, organism-based

COc1ccc2cc(C(C)C(=O)N3CCCC3C(=O)Oc3ccc(C)cc3OC)ccc2c1 (stereo unspecified)
inhibition [1]: 16% | inhibition in vivo at 300 µmol/kg (Rattus norvegicus [2]): 20%

COc1ccc2c(c1)c(CC(=O)O)c(C)n2C(=O)c1ccc(Cl)cc1 [INDOMETHACIN]
inhibition in vivo at 150 µmol/kg (Mus musculus [3]): 68% | Activity (Rattus norvegicus [4]): 100% | Activity (Rattus norvegicus [5]): -15 g | mortality at 96 h [6]: 50% | Activity (Rattus norvegicus [7]): 80%

CC(C)Cc1ccc(C(C)C(=O)OCCCc2cccnc2)cc1 (stereo unspecified)
IC50 [8]: 45 µM | inhibition in vivo at 300 µmol/kg (Mus musculus [9]): 59%

CC(C)Cc1ccc(C(C)C(=O)N2CCCC2C(=O)NCCS)cc1 (stereo unspecified)
concentration at 0.5 h [10]: 9780 ng/g | concentration at 2 h [11]: 35200 ng/g | concentration at 1 h [12]: 10200 ng/g

CC(C(=O)NCCS)c1cccc(C(=O)c2ccccc2)c1 (stereo unspecified)
IC50 (Liver microsome [13]): 650 µM | inhibition in vivo at 300 µmol/kg (Rattus norvegicus [2]): 39%

COc1ccc2cc(C(C)C(=O)OCCCc3cccnc3)ccc2c1 (stereo unspecified)
inhibition [1]: 71% | IC50 [8]: 28 µM | inhibition in vivo at 300 µmol/kg (Rattus norvegicus [2]): 27%

COc1ccc2cc(C(C)C(=O)Oc3ccc(C)cc3OC)ccc2c1 (stereo unspecified)
IC50 [8]: 90 µM | inhibition in vivo at 300 µmol/kg (Rattus norvegicus [2]): 40%

CC(C)Cc1ccc(C(C)C(=O)N2CCCC2C(=O)OCCO[N+](=O)[O-])cc1 (stereo unspecified)
IC50 [8]: 240 µM | inhibition (Liver microsome [14]): 14% | inhibition in vivo at 300 µmol/kg (Mus musculus [9]): 62%

COc1cc(C)ccc1OC(=O)C(C)c1ccc(CC(C)C)cc1 (stereo unspecified)
IC50 [8]: 65 µM | inhibition in vivo at 300 µmol/kg (Mus musculus [9]): 43%

CC(C(=O)OCCCc1cccnc1)c1cccc(C(=O)c2ccccc2)c1 (stereo unspecified)
Activity (Rattus norvegicus [15]): 50% | Activity (Rattus norvegicus [16]): 60% | inhibition [1]: 87% | IC50 [8]: 145 µM | mortality at 96 h [17]: 33% | Activity (Rattus norvegicus [18]): -13 g | inhibition in vivo at 300 µmol/kg (Rattus norvegicus [2]): 61%

CC(C)Cc1ccc([C@H](C)C(=O)O)cc1 [DEXIBUPROFEN]
inhibition in vivo at 300 µmol/kg (Mus musculus [9]): 53%

COc1ccc2cc([C@H](C)C(=O)O)ccc2c1 [NAPROXEN]
inhibition [1]: 52% | inhibition in vivo at 300 µmol/kg (Rattus norvegicus [2]): 51%

CC(C)Cc1ccc(C(C)C(=O)N2CCCC2C(=O)OCCCc2ccccc2)cc1 (stereo unspecified)
IC50 [8]: 60 µM | inhibition in vivo at 300 µmol/kg (Mus musculus [9]): 31%

CCOC(=O)C(CS)NC(=O)C1CCCCN1C(=O)Cc1c(C)[nH]c2ccc(OC)cc12 (stereo unspecified)
IC50 (Liver microsome [13]): 8 µM

CCOC(=O)C(CS)NC(=O)C1CCCN1C(=O)Cc1c(C)n(C(=O)c2ccc(Cl)cc2)c2ccc(OC)cc12 (stereo unspecified)
IC50 (Liver microsome [13]): 390 µM | Activity (Rattus norvegicus [19]): 3 nmol/mg | inhibition in vivo at 150 µmol/kg (Mus musculus [3]): 25% | inhibition in vivo at 300 µmol/kg (Mus musculus [9]): 44%

COc1cc(C)ccc1OC(=O)C1CCCN1C(=O)C(C)c1cccc(C(=O)c2ccccc2)c1 (stereo unspecified)
IC50 [8]: 60 µM | inhibition in vivo at 300 µmol/kg (Rattus norvegicus [2]): 13%

COc1ccc2cc(C(C)C(=O)N3CCCC3C(=O)OCCCc3cccnc3)ccc2c1 (stereo unspecified)
IC50 [8]: 46 µM | inhibition in vivo at 300 µmol/kg (Rattus norvegicus [2]): 24%

CC(C)Cc1ccc(C(C)C(=O)N2CCCC2C(=O)OCCO)cc1 (stereo unspecified)
IC50 [8]: 320 µM | inhibition in vivo at 300 µmol/kg (Mus musculus [9]): 24%

C[C@H](C(=O)O)c1cccc(C(=O)c2ccccc2)c1 [DEXKETOPROFEN]
inhibition in vivo at 300 µmol/kg (Rattus norvegicus [2]): 42%

CCOC(=O)C(CS)NC(=O)C1CCCN1C(=O)C(C)c1cccc(C(=O)c2ccccc2)c1 (stereo unspecified)
IC50 (Liver microsome [13]): 440 µM | IC50 [8]: 170 µM | inhibition in vivo at 300 µmol/kg (Rattus norvegicus [2]): 52%

CC(C(=O)O)c1cccc(C(=O)c2ccccc2)c1 (stereo unspecified) [KETOPROFEN]
Activity (Rattus norvegicus [15]): 85% | Activity (Rattus norvegicus [16]): 100% | inhibition [1]: 86% | mortality at 96 h [17]: 50% | Activity (Rattus norvegicus [18]): -24 g

CCOC(=O)C(CS)NC(=O)C1CCCN1C(=O)C(C)c1ccc(CC(C)C)cc1 (stereo unspecified)
concentration at 0.5 h [10]: 1590 ng/g | concentration at 2 h [11]: 27800 ng/g | concentration at 1 h [12]: 40800 ng/g

COc1ccc2c(c1)c(CC(=O)N1CCCC1C(=O)Oc1ccc(C)cc1OC)c(C)n2C(=O)c1ccc(Cl)cc1 (stereo unspecified)
inhibition in vivo at 150 µmol/kg (Mus musculus [3]): 49% | Activity (Rattus norvegicus [4]): 0% | inhibition [1]: 16% | Activity (Rattus norvegicus [5]): 11 g | mortality at 96 h [6]: 0% | inhibition in vivo at 300 µmol/kg (Mus musculus [9]): 54% | Activity (Rattus norvegicus [7]): 0%

COc1ccc2cc([C@H](C)C(=O)N3CC(O)CC3C(=O)NCCS)ccc2c1 (stereo partly specified)
concentration at 0.5 h [10]: 26600 ng/g | concentration at 2 h [11]: 710 ng/g | Kp at 2 h [20]: 0.04 | concentration at 1 h [12]: 5700 ng/g | Kp at 3 h [21]: 0.004
